Experimental data taken from patent US4211772A, “Benzopyran glycoside acetals and ketals” (Laboratoires Sarget, priority 1977, dated 1980).
Where two headings read alike, the source gives them in different places.

Tests used:
capillary resistance = assay: Capillaroprotecting effects: capillary resistance; assay type: in vivo, male OFA EOPS rats
Procedure: (§1) Capillaroprotecting effects
The capillary resistance was determined by a variant of the method of Charlier et al, Arch. Inter. Physiol.

Aldose Reductase = biological target: T1, Aldose Reductase (Bos taurus, UniProt P16116); assay: Inhibition of aldose reductase in vitro (enzyme from beef eye lenses, glyceraldehyde substrate); assay type: biochemical; settings: in DMF solution, read-out: percentages of inhibition (aldose reductase)
T1 construct: The enzyme is extracted from beef eye lenses; from tissue; host or cells: beef eye lenses
Excerpt: Inhibition of Aldose Reductase In Vitro
The reoxidation of NADPH coupled to the enzymatic reaction was followed spectrophotometrically at 340 nm.

capillary permeability = assay: Capillaroprotecting effects: capillary permeability; assay type: in vivo, conventional male Wistar rats
Procedure: as §1
The capillary permeability was determined by the method of Charlier et al, Arch. Inter. Physiol.

carragenin edema = assay: Anti-inflammatory activity: carragenin edema test; assay type: in vivo; settings: for % inhibition of carragenin edema: borate buffer pH 7, 24 h; for inhibition in vivo at 35 mg/kg / inhibition in vivo at 40 mg/kg / inhibition in vivo at 75 mg/kg / inhibition in vivo at 100 mg/kg / inhibition in vivo at 200 mg/kg: Rattus norvegicus, ip
How it was run: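 Male Wistar EOPS rats receive 0.1 ml of 5% carragenin suspension in physiological serum into the hind-paw metatarsal muscle, with test substance given i.p. in neutralized solution at the same time. Paw edema is measured by plethysmometry at several times after carragenin and reported as % inhibition against pH-matched physiological serum controls.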

Solubilities in water = assay type: physicochemical; settings: water; read-out: Solubilities in water

C[C@@H]1O[C@@H](OC[C@H]2O[C@@H](Oc3c(-c4ccc(O)c(O)c4)oc4cc(O)cc(O)c4c3=O)[C@H](O)[C@@H](O)[C@@H]2O)[C@@H]2OC3(CCCCC3)O[C@@H]2[C@H]1O [No. 6, 3-O-(2,3-O,O-cyclohexylidene-6-α-L-rhamnosyl-β-D-glucosyl)-quercitin]
% of animals for which the effect is ≥ 25 u cm Hg/h (capillary resistance; 50 mg/kg i.p.): 30% | capillary resistance, effect observed (capillary resistance; 50 mg/kg i.p.): 19.75 ± 10.2 u cm Hg/h | % of animals for which the effect is ≥ 25 u cm Hg/h (capillary resistance; 100 mg/kg i.p.): 40% | capillary resistance, effect observed (capillary resistance; 100 mg/kg i.p.): 25.5 ± 13.2 u cm Hg/h | % of animals for which the effect is ≥ 25 u cm Hg/h (capillary resistance; 200 mg/kg i.p.): 90% | capillary resistance, effect observed (capillary resistance; 200 mg/kg i.p.): 37.75 ± 12.9 u cm Hg/h | inhibition at 100 µM (Aldose Reductase; 10^-4 mole/l): 93% | inhibition at 10 µM (Aldose Reductase; 10^-5 mole/l): 66% | inhibition at 1 µM (Aldose Reductase; 10^-6 mole/l): 10% | percentage reduction of capillary permeability (capillary permeability; 50 mg/kg i.p.): 21% | percentage reduction of capillary permeability (capillary permeability; 100 mg/kg i.p.): 20% | percentage reduction of capillary permeability (capillary permeability; 200 mg/kg i.p.): 23% | % inhibition of carragenin edema (carragenin edema; 35 mg/kg i.p.): 27% | % inhibition of carragenin edema (carragenin edema; 75 mg/kg i.p.): 21% | % inhibition of carragenin edema (carragenin edema; 100 mg/kg i.p.): 37% | % inhibition of carragenin edema (carragenin edema; 200 mg/kg i.p.): 0% | inhibition in vivo at 35 mg/kg (carragenin edema; 1 h, pH 7, read-out: % inhibition of carragenin edema, 35 mg/kg i.p., borate buffer pH 7, 1 h): 32% | inhibition in vivo at 35 mg/kg (carragenin edema; 1 h, pH 7, read-out: % inhibition of carragenin edema, 35 mg/kg i.p., borate buffer pH 7, 1 h 1/2): 23% | inhibition in vivo at 40 mg/kg (carragenin edema; 1 h, pH 7, read-out: % inhibition of carragenin edema, 40 mg/kg i.p., borate buffer pH 7, 1 h): 23% | inhibition in vivo at 40 mg/kg (carragenin edema; 1 h, pH 7, read-out: % inhibition of carragenin edema, 40 mg/kg i.p., borate buffer pH 7, 1 h 1/2): 11% | inhibition in vivo at 75 mg/kg (carragenin edema; 1 h, pH 7, read-out: % inhibition of carragenin edema, 75 mg/kg i.p., borate buffer pH 7, 1 h): 9% | inhibition in vivo at 75 mg/kg (carragenin edema; 1 h, pH 7, read-out: % inhibition of carragenin edema, 75 mg/kg i.p., borate buffer pH 7, 1 h 1/2): 3% | inhibition in vivo at 100 mg/kg (carragenin edema; 1 h, pH 7, read-out: % inhibition of carragenin edema, 100 mg/kg i.p., borate buffer pH 7, 1 h): 20% | inhibition in vivo at 100 mg/kg (carragenin edema; 1 h, pH 7, read-out: % inhibition of carragenin edema, 100 mg/kg i.p., borate buffer pH 7, 1 h 1/2): 9% | inhibition in vivo at 200 mg/kg (carragenin edema; 1 h, pH 7, read-out: % inhibition of carragenin edema, 200 mg/kg i.p., borate buffer pH 7, 1 h): 19% | inhibition in vivo at 200 mg/kg (carragenin edema; 1 h, pH 7, read-out: % inhibition of carragenin edema, 200 mg/kg i.p., borate buffer pH 7, 1 h 1/2): 2% | inhibition in vivo at 35 mg/kg (carragenin edema; 2 h, pH 7, read-out: % inhibition of carragenin edema, 35 mg/kg i.p., borate buffer pH 7, 2 h): 33% | inhibition in vivo at 40 mg/kg (carragenin edema; 2 h, pH 7, read-out: % inhibition of carragenin edema, 40 mg/kg i.p., borate buffer pH 7, 2 h): 7% | inhibition in vivo at 75 mg/kg (carragenin edema; 2 h, pH 7, read-out: % inhibition of carragenin edema, 75 mg/kg i.p., borate buffer pH 7, 2 h): 14% | inhibition in vivo at 100 mg/kg (carragenin edema; 2 h, pH 7, read-out: % inhibition of carragenin edema, 100 mg/kg i.p., borate buffer pH 7, 2 h): 1% | inhibition in vivo at 200 mg/kg (carragenin edema; 2 h, pH 7, read-out: % inhibition of carragenin edema, 200 mg/kg i.p., borate buffer pH 7, 2 h): 4% | inhibition in vivo at 35 mg/kg (carragenin edema; 3 h, pH 7, read-out: % inhibition of carragenin edema, 35 mg/kg i.p., borate buffer pH 7, 3 h): 9% | inhibition in vivo at 40 mg/kg (carragenin edema; 3 h, pH 7, read-out: % inhibition of carragenin edema, 40 mg/kg i.p., borate buffer pH 7, 3 h): 2% | inhibition in vivo at 75 mg/kg (carragenin edema; 3 h, pH 7, read-out: % inhibition of carragenin edema, 75 mg/kg i.p., borate buffer pH 7, 3 h): 17% | inhibition in vivo at 100 mg/kg (carragenin edema; 3 h, pH 7, read-out: % inhibition of carragenin edema, 100 mg/kg i.p., borate buffer pH 7, 3 h): 2% | inhibition in vivo at 200 mg/kg (carragenin edema; 3 h, pH 7, read-out: % inhibition of carragenin edema, 200 mg/kg i.p., borate buffer pH 7, 3 h): 0% | inhibition in vivo at 35 mg/kg (carragenin edema; 4 h, pH 7, read-out: % inhibition of carragenin edema, 35 mg/kg i.p., borate buffer pH 7, 4 h): 7% | inhibition in vivo at 40 mg/kg (carragenin edema; 4 h, pH 7, read-out: % inhibition of carragenin edema, 40 mg/kg i.p., borate buffer pH 7, 4 h): 5% | inhibition in vivo at 75 mg/kg (carragenin edema; 4 h, pH 7, read-out: % inhibition of carragenin edema, 75 mg/kg i.p., borate buffer pH 7, 4 h): 0% | inhibition in vivo at 100 mg/kg (carragenin edema; 4 h, pH 7, read-out: % inhibition of carragenin edema, 100 mg/kg i.p., borate buffer pH 7, 4 h): 10% | inhibition in vivo at 200 mg/kg (carragenin edema; 4 h, pH 7, read-out: % inhibition of carragenin edema, 200 mg/kg i.p., borate buffer pH 7, 4 h): 8% | inhibition in vivo at 35 mg/kg (carragenin edema; 5 h, pH 7, read-out: % inhibition of carragenin edema, 35 mg/kg i.p., borate buffer pH 7, 5 h): 10% | inhibition in vivo at 40 mg/kg (carragenin edema; 5 h, pH 7, read-out: % inhibition of carragenin edema, 40 mg/kg i.p., borate buffer pH 7, 5 h): 2% | inhibition in vivo at 75 mg/kg (carragenin edema; 5 h, pH 7, read-out: % inhibition of carragenin edema, 75 mg/kg i.p., borate buffer pH 7, 5 h): 7% | inhibition in vivo at 100 mg/kg (carragenin edema; 5 h, pH 7, read-out: % inhibition of carragenin edema, 100 mg/kg i.p., borate buffer pH 7, 5 h): 15% | inhibition in vivo at 200 mg/kg (carragenin edema; 5 h, pH 7, read-out: % inhibition of carragenin edema, 200 mg/kg i.p., borate buffer pH 7, 5 h): 9% | inhibition in vivo at 35 mg/kg (carragenin edema; 6 h, pH 7, read-out: % inhibition of carragenin edema, 35 mg/kg i.p., borate buffer pH 7, 6 h): 14% | inhibition in vivo at 40 mg/kg (carragenin edema; 6 h, pH 7, read-out: % inhibition of carragenin edema, 40 mg/kg i.p., borate buffer pH 7, 6 h): 0% | inhibition in vivo at 75 mg/kg (carragenin edema; 6 h, pH 7, read-out: % inhibition of carragenin edema, 75 mg/kg i.p., borate buffer pH 7, 6 h): 13% | inhibition in vivo at 100 mg/kg (carragenin edema; 6 h, pH 7, read-out: % inhibition of carragenin edema, 100 mg/kg i.p., borate buffer pH 7, 6 h): 5% | inhibition in vivo at 200 mg/kg (carragenin edema; 6 h, pH 7, read-out: % inhibition of carragenin edema, 200 mg/kg i.p., borate buffer pH 7, 6 h): 1% | inhibition in vivo at 35 mg/kg (carragenin edema; read-out: % inhibition of carragenin edema, 35 mg/kg i.p., borate buffer pH 7, 1/2 h): 26% | inhibition in vivo at 40 mg/kg (carragenin edema; read-out: % inhibition of carragenin edema, 40 mg/kg i.p., borate buffer pH 7, 1/2 h): 28% | inhibition in vivo at 75 mg/kg (carragenin edema; read-out: % inhibition of carragenin edema, 75 mg/kg i.p., borate buffer pH 7, 1/2 h): 29% | inhibition in vivo at 100 mg/kg (carragenin edema; read-out: % inhibition of carragenin edema, 100 mg/kg i.p., borate buffer pH 7, 1/2 h): 23% | inhibition in vivo at 200 mg/kg (carragenin edema; read-out: % inhibition of carragenin edema, 200 mg/kg i.p., borate buffer pH 7, 1/2 h): 14% | solubility (Solubilities in water): < 100 µg/mL
